Reference: patent US11197812B2, “Cosmetic formulations for topical applications containing erythropoietin-derived molecules” (ASC REGENITY LTD., priority 2016, dated 2021)
Where no end group is shown, it is not given here.

How the values were obtained:
[1] = tested on: persons suffering from acne; settings: human, in vivo
Protocol: Four test groups (corresponding to the “peptides, 0, 2, 3 and 4”) with each five persons (in total, 20 subjects) suffering from acne, were treated twice daily with a formulation of the invention (“iARP-lotion” with trigger factor complex) for one week. No undesirable or even pathological lesions in the relevant skin area of the test persons were observed.

[2] = tested on: severe acne on the face and neck; test: Acne Trial 1 (single test person); format: in vivo, human; settings: after one week of treatment with the respective formulation
Protocol: The test person was a person with severe acne on the face and neck. They were treated for one week with a standard cosmetic formulation based on a control lipid (dexpanthenol/panthenol), but without a polypeptide according to the invention. […] Then a cosmetic formulation according to the invention was applied, but again without a polypeptide according to the invention. The formulation contained ceramides and lecithin instead of dexpanthanol, and amino acids such as L-arginine. […] The test person then was treated with a formulation of the invention now comprising “Peptide 0”. […] After 3 weeks the test person was treated with the same formulation but which now comprised “Peptide 4” instead of the reference polypeptide (“Peptide 0”).

[3] = tested on: facial skin of healthy subjects; test: Cosmetic skin improvement assay (Canfield VISIA facial skin analysis); format: in vivo, human; settings: cream once a day, after one month, versus controls / dexpanthenol 5% / QEQLERALNSS formulation
Excerpt: In this assay the cosmetic facial skin appearance upon application of the formulations of this invention was monitored. For that purpose, the commercially available state-of-the-art facial skin imaging and data analysis platform, the Canfield Bio Visia™, was utilized, (see here: https://www.canfieldsci.com/imaging-systems/visia-complexion-analysis/). This platform provides the possibility of a i) highly standardized, ii) highly reproducible, iii) quantitative, iv) non-invasive, and vi) subject or tester bias-free skin quality analysis. It records several photos of the face from different angles and records absorption/reflection spectra (see figure: Canfield VISIA facial skin analysis platform). […] The in-built software standardizes every parameter by comparison to a large database of skin feature norms and returns a value in the range of 0%-to 100% to permit inter-individual subject comparison.
Healthy subjects received cosmetic creams with formulations of this invention or controls in a blinded manner, i.e. the subjects were unaware of the identity of the received cosmetic cream. […] Subject skin quality was assessed before the start of the application and after one month (31±3 days). As a control, to account for seasonal and lifestyle change associated skin quality changes, quality of the hand exterior surface was monitored as well. […]

skin = test: Relative cosmetic relevance in over-all skin-protective activity; set-up: species or system human
[4] = tested on: UV light-induced erythema on skin of healthy subjects; test: Erythema recovery assay (UVB light-induced erythema, doubled MED); format: in vivo, human; settings: 20 μl lotion on 1×1 cm^2 area, 6 hours after exposure, normalized redness
Excerpt: Another means of measuring the efficacy of tissue-protection exerted by any formulation is the speed of skin recovery from a UVB light-induced erythema such as common sunburns. Erythema are skin irritations with enhanced redness of the skin due to local hyperaemia (enhanced blood flow in superficial capillaries) that is associated with repair processes in the skin. The quicker the repair process is, the quicker the hyperaemia gets shut down and thus the quicker the skin redness gets reduced to normal levels. Accordingly, the redness can be measured as a proxy for the damage status of the skin.
In this assay, healthy subjects received the doubled minimal erythema dose (MED) on skin areas of about 1×1 cm^2 on the left arm. Beforehand, the MED was determined individually for each subject by exposing other skin areas to increasing intensities of UV light emitted by the UV6 lamp (280-360 nm) of the Waldmann UV 802 L device. […]
Before light double MED exposure and after 6 hours, skin redness in the exposed area was spectroscopically measured using the ‘chroma meter CR-400’ manufactured by Konica Minolta. Redness of every area in every subject 6 hours after the exposure was normalized to the redness of the same area before the exposure by division of measured redness values. […]

Compound	overall skin tolerance compatibility [1]	unwanted skin reactions caused by skin-irritating or sensitizing effects [1]	other results
QDQLERALNST [Peptide 3, QDQLERALNST]	improved overall skin tolerance compatibility as excellent	did not trigger any unwanted skin reactions	–
CC(C)(CO)[C@@H](O)C(=O)NCCCO [Dexpanthenol]	–	–	change of acne [2]: slightly reduced
QEQLERALNSS [Peptide 0, QEQLERALNSS, reference compound]	–	did not trigger any unwanted skin reactions	–
NEQLERALNST (RRQEQLERALNSSRR; ′Peptide 0′ plus vasculature relaxation stimulating agents at 5′- and 3′ end;) [Peptide 1]	–	–	improvement of measured skin parameters (spots, wrinkles, smoothness) [3]: performed even better than the formulations with the previously described […] peptide; relative cosmetic relevance in over-all skin-protective activity (rank order) (skin): EPO<EPO fragments 1-3<Peptide 0, 1<Peptide 3<Peptide 2<Peptide 4; double MED-induced skin redness (erythema) [4]: performed even better than the formulations with the previously described […] peptide
QDQLERALNTS [Peptide 4, QDQLERALNTS]	still rated good	did not trigger any unwanted skin reactions	–
NEQLERALNTS [Peptide 2, NEQLERALNTS]	improved overall skin tolerance compatibility as excellent	did not trigger any unwanted skin reactions	–
